From PMC3639963, “A New Class of Small Molecule Inhibitor of BMP Signaling” (PLoS ONE, 2013) come the findings set out here.

Holding throughout (assay): Nanosyn kinase profiling
Assay type in all cases: biochemical
What all share (conditions): read-out: Percentage inhibition; for inhibition at 0.1 µM: 0.1 µM inhibitor; for inhibition at 1 µM: 1 µM inhibitor

The target of one experiment is T1, FLT4 (Homo sapiens, UniProt P35916).
T1 construct: purchased Nanosyn (enzymatic panel); SGC in-house recombinant human kinases (DSF panel); Invitrogen (ALK1-6)
The essentials: (§1)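 Percent inhibition of each kinase was measured with the inhibitor at 0.1 µM and at 1 µM, as part of a 200-kinase human selectivity panel.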

Another experiment addresses T2, MAPKAPK2 (Homo sapiens, UniProt P49137).
T2 construct: purchased Nanosyn (enzymatic panel); SGC in-house recombinant human kinases (DSF panel); Invitrogen (ALK1-6)
The essentials: as §1

Another experiment addresses T3, P38α (Homo sapiens, UniProt Q16539).
T3 construct: purchased Nanosyn (enzymatic panel); SGC in-house recombinant human kinases (DSF panel); Invitrogen (ALK1-6)
The essentials: as §1

The target in another experiment is T4, PAK1 (Homo sapiens, UniProt Q13153).
T4 construct: purchased Nanosyn (enzymatic panel); SGC in-house recombinant human kinases (DSF panel); Invitrogen (ALK1-6)
In outline:
as §1

Another experiment has as its target T5, PRKD1 (Homo sapiens, UniProt Q15139).
T5 construct: purchased Nanosyn (enzymatic panel); SGC in-house recombinant human kinases (DSF panel); Invitrogen (ALK1-6)
T5 sequence (Q15139 1-912): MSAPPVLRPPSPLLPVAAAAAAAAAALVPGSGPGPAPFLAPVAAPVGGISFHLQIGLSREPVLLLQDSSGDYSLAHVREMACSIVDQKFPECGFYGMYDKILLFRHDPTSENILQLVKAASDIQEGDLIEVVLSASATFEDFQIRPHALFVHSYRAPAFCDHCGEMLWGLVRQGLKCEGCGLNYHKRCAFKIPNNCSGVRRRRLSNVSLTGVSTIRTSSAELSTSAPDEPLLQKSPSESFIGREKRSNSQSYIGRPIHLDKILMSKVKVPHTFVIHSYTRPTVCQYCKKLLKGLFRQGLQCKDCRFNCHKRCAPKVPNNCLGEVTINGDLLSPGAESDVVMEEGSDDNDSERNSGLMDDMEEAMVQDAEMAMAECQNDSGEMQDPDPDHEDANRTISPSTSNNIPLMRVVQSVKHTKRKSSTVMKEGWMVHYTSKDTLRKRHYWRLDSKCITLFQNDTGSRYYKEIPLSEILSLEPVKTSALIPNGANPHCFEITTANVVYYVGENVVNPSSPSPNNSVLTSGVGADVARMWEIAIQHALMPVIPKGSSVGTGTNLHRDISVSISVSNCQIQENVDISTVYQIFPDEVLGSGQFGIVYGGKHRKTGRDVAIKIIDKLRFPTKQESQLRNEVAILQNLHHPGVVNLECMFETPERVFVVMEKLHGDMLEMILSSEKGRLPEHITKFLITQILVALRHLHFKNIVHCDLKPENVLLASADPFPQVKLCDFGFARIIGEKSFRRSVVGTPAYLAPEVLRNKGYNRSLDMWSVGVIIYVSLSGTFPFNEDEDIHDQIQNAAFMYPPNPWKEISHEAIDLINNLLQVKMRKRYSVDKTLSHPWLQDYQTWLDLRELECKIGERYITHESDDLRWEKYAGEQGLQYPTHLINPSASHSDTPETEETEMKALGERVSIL
The essentials:
as §1

The target in another experiment is T6, ROCK2 (Homo sapiens, UniProt O75116).
T6 construct: purchased Nanosyn (enzymatic panel); SGC in-house recombinant human kinases (DSF panel); Invitrogen (ALK1-6)
In outline:
as §1

The target of the next experiment is T7, SGK1 (Homo sapiens, UniProt O00141).
T7 construct: purchased Nanosyn (enzymatic panel); SGC in-house recombinant human kinases (DSF panel); Invitrogen (ALK1-6)
T7 sequence (O00141 1-431): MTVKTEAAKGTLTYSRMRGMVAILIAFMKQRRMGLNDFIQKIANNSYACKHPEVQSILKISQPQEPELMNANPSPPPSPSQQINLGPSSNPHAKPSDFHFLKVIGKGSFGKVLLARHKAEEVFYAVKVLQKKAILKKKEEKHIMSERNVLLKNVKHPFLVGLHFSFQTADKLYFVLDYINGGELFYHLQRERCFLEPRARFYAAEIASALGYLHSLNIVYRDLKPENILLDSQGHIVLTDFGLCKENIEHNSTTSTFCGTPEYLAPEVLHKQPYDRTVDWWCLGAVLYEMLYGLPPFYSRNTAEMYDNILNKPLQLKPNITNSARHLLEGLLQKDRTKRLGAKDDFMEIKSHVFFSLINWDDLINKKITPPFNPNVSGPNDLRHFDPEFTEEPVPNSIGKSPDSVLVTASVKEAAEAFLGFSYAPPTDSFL
In outline:
as §1

For another experiment, the target named is T8, TSSK2 (Homo sapiens, UniProt Q96PF2).
T8 construct: purchased Nanosyn (enzymatic panel); SGC in-house recombinant human kinases (DSF panel); Invitrogen (ALK1-6)
T8 sequence (Q96PF2 1-358): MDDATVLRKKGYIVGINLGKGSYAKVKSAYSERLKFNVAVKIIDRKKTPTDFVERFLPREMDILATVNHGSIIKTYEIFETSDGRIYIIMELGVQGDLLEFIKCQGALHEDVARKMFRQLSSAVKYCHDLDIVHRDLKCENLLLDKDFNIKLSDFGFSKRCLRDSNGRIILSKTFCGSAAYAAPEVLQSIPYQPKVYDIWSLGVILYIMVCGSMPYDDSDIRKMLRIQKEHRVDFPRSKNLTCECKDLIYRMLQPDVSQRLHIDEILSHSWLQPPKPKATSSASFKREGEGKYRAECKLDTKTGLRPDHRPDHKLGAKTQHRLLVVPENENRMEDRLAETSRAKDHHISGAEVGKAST
In outline:
as §1

The target of a further experiment is T9, cRAF (Homo sapiens, UniProt P04049).
T9 construct: purchased Nanosyn (enzymatic panel); SGC in-house recombinant human kinases (DSF panel); Invitrogen (ALK1-6)
In outline:
as §1

Each structure is given as a SMILES string.

T6 sequence (O75116 whole entry): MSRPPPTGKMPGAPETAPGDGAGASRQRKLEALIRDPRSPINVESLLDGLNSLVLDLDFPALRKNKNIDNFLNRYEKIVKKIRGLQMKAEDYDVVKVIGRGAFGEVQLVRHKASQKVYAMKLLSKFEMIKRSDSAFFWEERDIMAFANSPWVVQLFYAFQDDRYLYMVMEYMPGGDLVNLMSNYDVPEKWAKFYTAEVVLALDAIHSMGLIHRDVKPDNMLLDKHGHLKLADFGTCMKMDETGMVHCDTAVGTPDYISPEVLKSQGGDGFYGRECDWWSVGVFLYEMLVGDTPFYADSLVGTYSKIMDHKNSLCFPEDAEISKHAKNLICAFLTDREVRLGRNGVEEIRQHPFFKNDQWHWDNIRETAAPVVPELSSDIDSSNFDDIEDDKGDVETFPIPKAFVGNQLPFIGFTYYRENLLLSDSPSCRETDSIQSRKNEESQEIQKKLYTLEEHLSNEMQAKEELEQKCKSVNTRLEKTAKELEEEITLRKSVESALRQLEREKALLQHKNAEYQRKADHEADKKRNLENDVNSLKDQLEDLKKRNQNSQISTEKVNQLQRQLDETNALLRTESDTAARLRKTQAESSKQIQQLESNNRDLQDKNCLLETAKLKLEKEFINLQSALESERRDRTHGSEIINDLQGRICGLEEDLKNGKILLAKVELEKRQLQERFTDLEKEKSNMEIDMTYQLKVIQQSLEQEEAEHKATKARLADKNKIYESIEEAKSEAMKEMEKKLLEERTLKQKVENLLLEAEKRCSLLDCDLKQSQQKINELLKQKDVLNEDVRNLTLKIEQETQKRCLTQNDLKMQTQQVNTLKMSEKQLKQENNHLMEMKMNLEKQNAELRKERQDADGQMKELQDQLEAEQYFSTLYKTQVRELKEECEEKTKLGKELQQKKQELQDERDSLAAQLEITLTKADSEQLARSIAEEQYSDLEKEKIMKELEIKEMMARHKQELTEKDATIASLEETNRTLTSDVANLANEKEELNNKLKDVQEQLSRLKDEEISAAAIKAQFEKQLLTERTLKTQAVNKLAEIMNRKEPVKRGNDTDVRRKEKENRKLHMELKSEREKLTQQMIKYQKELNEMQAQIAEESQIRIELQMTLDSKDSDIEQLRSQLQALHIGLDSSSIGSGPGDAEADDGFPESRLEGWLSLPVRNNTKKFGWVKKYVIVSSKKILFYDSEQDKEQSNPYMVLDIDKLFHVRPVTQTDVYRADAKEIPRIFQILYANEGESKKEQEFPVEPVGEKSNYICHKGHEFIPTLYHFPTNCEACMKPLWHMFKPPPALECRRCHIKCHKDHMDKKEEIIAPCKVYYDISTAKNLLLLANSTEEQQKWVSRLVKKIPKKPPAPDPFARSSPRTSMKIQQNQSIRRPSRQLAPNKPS
T9 sequence (P04049 whole entry): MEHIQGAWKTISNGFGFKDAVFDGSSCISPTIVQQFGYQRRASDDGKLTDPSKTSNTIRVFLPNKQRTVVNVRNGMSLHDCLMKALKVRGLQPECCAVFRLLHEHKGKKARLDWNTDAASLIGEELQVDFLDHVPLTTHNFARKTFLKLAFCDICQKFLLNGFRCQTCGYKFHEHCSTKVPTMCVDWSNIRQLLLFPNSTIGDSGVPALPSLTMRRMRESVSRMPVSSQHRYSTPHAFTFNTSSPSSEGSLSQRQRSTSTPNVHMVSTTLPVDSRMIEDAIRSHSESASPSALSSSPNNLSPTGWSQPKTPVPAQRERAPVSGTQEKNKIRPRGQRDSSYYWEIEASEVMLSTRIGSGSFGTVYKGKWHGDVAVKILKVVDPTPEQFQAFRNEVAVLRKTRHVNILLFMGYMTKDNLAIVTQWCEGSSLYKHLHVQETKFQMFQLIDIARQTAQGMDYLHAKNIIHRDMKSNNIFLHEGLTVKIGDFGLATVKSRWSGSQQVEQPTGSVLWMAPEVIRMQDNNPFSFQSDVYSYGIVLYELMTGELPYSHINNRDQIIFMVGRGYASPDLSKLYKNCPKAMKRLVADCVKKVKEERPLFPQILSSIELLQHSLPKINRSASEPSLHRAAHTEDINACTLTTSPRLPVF
T2 sequence (P49137 whole entry): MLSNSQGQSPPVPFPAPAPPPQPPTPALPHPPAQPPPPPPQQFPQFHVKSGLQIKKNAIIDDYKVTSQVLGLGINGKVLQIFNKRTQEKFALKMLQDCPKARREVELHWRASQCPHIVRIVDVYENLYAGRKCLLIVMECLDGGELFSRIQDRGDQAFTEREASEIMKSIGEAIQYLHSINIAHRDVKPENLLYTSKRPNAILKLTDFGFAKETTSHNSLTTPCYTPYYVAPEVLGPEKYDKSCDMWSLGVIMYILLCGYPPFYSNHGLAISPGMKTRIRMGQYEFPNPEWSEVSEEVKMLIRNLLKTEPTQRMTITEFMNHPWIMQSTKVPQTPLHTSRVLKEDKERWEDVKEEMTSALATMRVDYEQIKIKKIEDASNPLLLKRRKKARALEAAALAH
T3 sequence (Q16539 whole entry): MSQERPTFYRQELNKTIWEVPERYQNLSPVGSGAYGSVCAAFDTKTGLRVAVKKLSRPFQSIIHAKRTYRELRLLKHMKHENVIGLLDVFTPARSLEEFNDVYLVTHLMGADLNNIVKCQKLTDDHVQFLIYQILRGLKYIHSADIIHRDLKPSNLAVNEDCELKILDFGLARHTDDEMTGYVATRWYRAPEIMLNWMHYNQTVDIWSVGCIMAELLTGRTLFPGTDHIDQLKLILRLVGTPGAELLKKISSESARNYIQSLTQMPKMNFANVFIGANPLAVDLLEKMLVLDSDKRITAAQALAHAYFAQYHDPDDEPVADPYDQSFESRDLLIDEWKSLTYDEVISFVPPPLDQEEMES
T1 sequence (P35916 25-1363): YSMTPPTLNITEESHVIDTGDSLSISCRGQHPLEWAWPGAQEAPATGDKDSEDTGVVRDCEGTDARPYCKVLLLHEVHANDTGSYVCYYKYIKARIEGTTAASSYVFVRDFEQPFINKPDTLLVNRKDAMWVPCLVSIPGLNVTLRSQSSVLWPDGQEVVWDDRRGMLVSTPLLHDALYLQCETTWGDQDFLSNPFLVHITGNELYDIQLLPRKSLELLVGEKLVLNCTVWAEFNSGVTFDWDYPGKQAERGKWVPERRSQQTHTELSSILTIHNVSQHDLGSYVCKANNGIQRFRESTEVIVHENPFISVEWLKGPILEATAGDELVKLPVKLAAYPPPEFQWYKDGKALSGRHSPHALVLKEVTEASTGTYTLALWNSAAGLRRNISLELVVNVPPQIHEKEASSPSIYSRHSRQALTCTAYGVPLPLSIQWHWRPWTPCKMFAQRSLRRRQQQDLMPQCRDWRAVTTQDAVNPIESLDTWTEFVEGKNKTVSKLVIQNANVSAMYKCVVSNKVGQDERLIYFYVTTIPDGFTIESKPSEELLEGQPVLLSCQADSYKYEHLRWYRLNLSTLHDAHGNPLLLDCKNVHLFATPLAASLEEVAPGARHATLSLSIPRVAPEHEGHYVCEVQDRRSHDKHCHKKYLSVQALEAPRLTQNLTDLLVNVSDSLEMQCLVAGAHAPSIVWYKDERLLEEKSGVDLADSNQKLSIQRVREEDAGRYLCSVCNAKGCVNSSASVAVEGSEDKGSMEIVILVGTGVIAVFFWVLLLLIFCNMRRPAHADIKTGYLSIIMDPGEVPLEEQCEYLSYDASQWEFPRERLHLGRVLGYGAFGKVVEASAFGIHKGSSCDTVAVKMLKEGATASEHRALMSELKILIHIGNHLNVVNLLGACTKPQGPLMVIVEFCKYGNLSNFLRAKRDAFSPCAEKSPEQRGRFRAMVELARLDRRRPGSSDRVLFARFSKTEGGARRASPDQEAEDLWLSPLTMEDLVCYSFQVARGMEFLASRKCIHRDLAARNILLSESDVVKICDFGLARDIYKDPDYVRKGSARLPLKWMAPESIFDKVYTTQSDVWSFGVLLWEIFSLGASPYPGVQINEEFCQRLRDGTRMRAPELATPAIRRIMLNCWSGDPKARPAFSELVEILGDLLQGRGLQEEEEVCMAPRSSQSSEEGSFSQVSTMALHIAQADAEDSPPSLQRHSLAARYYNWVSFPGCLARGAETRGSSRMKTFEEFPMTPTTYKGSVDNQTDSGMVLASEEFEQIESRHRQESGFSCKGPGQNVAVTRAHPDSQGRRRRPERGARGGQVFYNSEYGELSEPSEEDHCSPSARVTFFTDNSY
T4 sequence (Q13153 whole entry): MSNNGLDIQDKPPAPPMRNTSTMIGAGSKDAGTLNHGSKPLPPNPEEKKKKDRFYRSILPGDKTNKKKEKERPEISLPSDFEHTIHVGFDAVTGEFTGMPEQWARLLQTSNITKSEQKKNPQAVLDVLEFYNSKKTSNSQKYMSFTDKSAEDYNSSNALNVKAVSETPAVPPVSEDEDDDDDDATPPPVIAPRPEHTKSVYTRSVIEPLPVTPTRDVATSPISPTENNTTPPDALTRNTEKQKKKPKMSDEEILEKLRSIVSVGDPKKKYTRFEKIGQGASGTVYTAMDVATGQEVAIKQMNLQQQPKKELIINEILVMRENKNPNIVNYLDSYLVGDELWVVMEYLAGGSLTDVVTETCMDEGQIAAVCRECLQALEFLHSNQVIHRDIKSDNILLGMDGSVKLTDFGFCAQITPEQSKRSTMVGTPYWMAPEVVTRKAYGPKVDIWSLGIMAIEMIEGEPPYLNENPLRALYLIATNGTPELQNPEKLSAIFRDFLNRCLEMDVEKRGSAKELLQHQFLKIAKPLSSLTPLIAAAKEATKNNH

On to `COc1cc(-c2cc(-c3cccc(O)c3)cnc2N)cc(OC)c1OC` [K02288, 3-[6-amino-5-(3,4,5-trimethoxy-phenyl)-pyridin-3-yl]-phenol], for which the inhibition – broadly, the drop in the measured response relative to a control, in per cent – at 0.1 µM on FLT4 was 0.6%; at MAPKAPK2 it was -2%; on P38α, -3%; at PAK1 it was 0%; on PRKD1, 0%; at ROCK2, -1%. The inhibition at 0.1 µM at SGK1 is 1.1%; at TSSK2 it was -1%; on cRAF, -5%. The inhibition at 1 µM at FLT4 is 1.4%; on MAPKAPK2, -1%; on P38α, 1.5%; on PAK1, 0.6%; at PRKD1 it was 6.1%; at ROCK2, 0.8%. Besides, the inhibition at 1 µM was -2% on SGK1, -3% on TSSK2 and -8% on cRAF.
For the molecule `c1ccc2c(-c3cnn4cc(-c5ccc(N6CCNCC6)cc5)cnc34)ccnc2c1` [LDN-193189], the inhibition at 0.1 µM at FLT4 was 3.4%; at MAPKAPK2, 0.7%; on P38α, 4.4%; at PAK1, 4.3%; at PRKD1 it was 4.6%; on ROCK2 it was 1.4%. The values for the inhibition at 0.1 µM at SGK1, on TSSK2 and on cRAF were 1.1%, 0% and 0.6%, respectively. In addition, the inhibition at 1 µM at FLT4 worked out at 13%; at MAPKAPK2 it was 0%; on P38α it was 3.3%; at PAK1 it was 4.9%; on PRKD1, 15%; on ROCK2, 1.5%. The inhibition at 1 µM was 0.8% on SGK1, 0.5% on TSSK2 and 0.1% on cRAF.
